# Data as given in ChEMBL document CHEMBL3714748, “Compounds and compositions as ITPKB inhibitors” (2012).
# Legend:
# Kinase = biological target: T1, Kinase (Mus musculus, UniProt B2RXC2); experiment: Inhibition of mouse ITPKb (640 to 942 residues) expressed in Escherichia coli HK100 assessed as reduction in IP3 phosphorylation incubated for 60 mins by kinase-Glo ATP depletion assay
# T1 sequence (B2RXC2 whole entry): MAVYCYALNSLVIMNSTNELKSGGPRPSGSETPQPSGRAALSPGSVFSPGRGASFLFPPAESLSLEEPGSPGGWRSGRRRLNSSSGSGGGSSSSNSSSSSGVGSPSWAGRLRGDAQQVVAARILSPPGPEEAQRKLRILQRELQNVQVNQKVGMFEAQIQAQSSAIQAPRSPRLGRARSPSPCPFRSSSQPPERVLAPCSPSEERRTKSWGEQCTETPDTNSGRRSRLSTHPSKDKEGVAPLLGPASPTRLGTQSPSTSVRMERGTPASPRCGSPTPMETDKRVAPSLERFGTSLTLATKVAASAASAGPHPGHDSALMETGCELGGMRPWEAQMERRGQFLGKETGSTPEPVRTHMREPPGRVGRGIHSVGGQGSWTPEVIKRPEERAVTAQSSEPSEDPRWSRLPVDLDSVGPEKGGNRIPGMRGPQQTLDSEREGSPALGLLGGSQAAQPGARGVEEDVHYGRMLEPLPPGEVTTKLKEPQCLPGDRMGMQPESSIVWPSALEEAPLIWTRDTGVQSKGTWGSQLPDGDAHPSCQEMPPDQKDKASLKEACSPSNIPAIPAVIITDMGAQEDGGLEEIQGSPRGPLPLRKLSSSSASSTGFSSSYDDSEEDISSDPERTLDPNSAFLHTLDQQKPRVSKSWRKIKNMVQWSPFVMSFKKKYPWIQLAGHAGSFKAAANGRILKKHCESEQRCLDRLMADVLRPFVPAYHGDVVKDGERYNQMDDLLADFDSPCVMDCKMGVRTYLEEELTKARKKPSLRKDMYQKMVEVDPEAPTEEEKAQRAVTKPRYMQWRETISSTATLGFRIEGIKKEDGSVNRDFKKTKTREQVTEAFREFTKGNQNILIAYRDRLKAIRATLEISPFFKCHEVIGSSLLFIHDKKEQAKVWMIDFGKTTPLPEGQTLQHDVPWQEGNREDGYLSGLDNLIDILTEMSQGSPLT
# [1] = biological target: T2, Inositol-trisphosphate 3-kinase B (Homo sapiens, UniProt P27987); experiment: Inhibition of ITPKb in human Jurkat cells assessed as reduction in conversion of IP3 to IP4 using [3H]-myo-inositol incubated for 5 mins by beta-RAM radio-HPLC method; assay type: cell-based
# T2 sequence (P27987 whole entry): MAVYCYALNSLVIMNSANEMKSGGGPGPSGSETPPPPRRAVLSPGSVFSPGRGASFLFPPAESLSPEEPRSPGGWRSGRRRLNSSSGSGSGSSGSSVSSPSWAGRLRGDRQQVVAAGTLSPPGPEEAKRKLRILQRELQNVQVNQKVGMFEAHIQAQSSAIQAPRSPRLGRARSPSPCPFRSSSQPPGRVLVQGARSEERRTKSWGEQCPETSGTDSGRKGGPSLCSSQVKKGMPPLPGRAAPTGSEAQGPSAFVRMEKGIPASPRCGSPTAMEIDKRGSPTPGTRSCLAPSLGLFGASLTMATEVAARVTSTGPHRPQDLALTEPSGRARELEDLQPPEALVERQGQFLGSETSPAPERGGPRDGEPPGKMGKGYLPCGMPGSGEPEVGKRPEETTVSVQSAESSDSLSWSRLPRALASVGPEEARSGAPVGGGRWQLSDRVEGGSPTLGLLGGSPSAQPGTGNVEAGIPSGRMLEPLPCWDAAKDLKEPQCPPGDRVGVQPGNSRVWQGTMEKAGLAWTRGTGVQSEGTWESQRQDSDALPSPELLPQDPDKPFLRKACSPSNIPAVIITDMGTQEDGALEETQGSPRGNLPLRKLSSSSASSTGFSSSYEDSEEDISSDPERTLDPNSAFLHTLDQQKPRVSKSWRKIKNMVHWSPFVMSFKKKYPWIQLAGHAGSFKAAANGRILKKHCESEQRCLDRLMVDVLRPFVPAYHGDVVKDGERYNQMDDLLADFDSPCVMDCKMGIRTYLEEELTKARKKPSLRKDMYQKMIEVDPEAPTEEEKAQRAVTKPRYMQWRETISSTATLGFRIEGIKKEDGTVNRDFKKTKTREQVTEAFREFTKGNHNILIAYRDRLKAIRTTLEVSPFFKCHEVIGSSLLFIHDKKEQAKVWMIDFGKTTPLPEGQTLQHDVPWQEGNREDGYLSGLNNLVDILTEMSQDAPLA
SMILES,IC50 (Kinase),IC50 [1]
C[C@@H]1CN(Cc2c[nH]nc2-c2ccc3c(c2)CNC(=O)O3)CCN1c1cc(C#N)ccn1,< 100 nM,< 500 nM
C[C@@H]1CN(Cc2c[nH]nc2-c2ccc3c(c2)CNC(=O)O3)CCN1c1cccc(C(F)(F)F)c1,< 100 nM,< 500 nM
O=C1NCc2cc(-c3n[nH]cc3CN3CCN(c4ccc(C(F)(F)F)cn4)CC3)ccc2O1,< 100 nM,< 500 nM
C[C@@H]1CN(Cc2c[nH]nc2-c2ccc3c(c2)CNC(=O)O3)CCN1C1CCCCC1,< 100 nM,< 500 nM
Cc1ccc(N2CCN(Cc3c[nH]nc3-c3ccc4c(c3)CNC(=O)O4)C[C@H]2C)nc1,< 100 nM,< 500 nM
O=C1NCc2cc(-c3n[nH]cc3CN3CCN(c4ccc(C(F)(F)F)cn4)C(C(F)(F)F)C3)ccc2O1 (stereo not drawn),< 100 nM,< 500 nM
Cc1cccc(N2CCN(Cc3c[nH]nc3-c3ccc4[nH]c(=O)oc4c3)CC2)c1C,< 100 nM,< 500 nM
O=C1NCc2cc(-c3n[nH]cc3CN3CCN(c4ccc(C(F)(F)F)cn4)[C@H](CO)C3)ccc2O1,< 100 nM,< 500 nM
C[C@@H]1CN(Cc2c[nH]nc2-c2ccc3oc(=O)[nH]c3c2)CCN1c1ccc(C(F)(F)F)cn1,< 100 nM,< 500 nM
O=C1NCc2cc(-c3n[nH]cc3CN3C4CC3CN(c3ccc(C(F)(F)F)cn3)C4)ccc2O1,< 100 nM,< 500 nM
O=C1NCc2cc(-c3n[nH]cc3CN3CCCN(c4ccc(C(F)(F)F)cn4)CC3)ccc2O1,< 100 nM,< 500 nM
C[C@@H]1CN(Cc2c[nH]nc2-c2ccc3c(c2)C(=O)NC(=O)C3)CCN1c1ccc(C(F)(F)F)cn1,< 100 nM,< 500 nM
C[C@@H]1CN(Cc2c[nH]nc2-c2ccc3c(c2)CNC(=O)O3)CCN1c1ccc(C#N)cn1,< 100 nM,< 500 nM
C[C@@H]1CN(Cc2c[nH]nc2-c2ccc3c(c2)CNC(=O)O3)CCN1c1ccc(Cl)cn1,< 100 nM,< 500 nM
C[C@@H]1CN(Cc2n[nH]nc2-c2ccc3c(c2)CNC(=O)O3)CCN1c1ccc(C(F)(F)F)cn1,< 100 nM,< 500 nM
O=C1NCc2cc(-c3n[nH]cc3CN3CCN(c4ccc(C(F)(F)F)cn4)[C@H](CF)C3)ccc2O1,< 100 nM,< 500 nM
C[C@@H]1CN(Cc2c[nH]nc2-c2ccc3c(c2)CNC(=O)N3)CCN1c1ccc(C(F)(F)F)cn1,< 100 nM,< 500 nM
C[C@@H]1CN(Cc2c[nH]nc2-c2ccc3c(c2)CNC(=O)O3)CCN1c1ccc(C(F)(F)F)cc1,< 100 nM,< 500 nM
C[C@H]1CN(Cc2c[nH]nc2-c2ccc3[nH]c(=O)oc3c2)CCN1c1ccc(C(F)(F)F)cn1,< 100 nM,< 500 nM
C[C@H]1CN(Cc2c[nH]nc2-c2ccc3c(c2)CNC(=O)O3)CCN1c1ccc(C(F)(F)F)cn1,< 100 nM,< 500 nM
O=c1[nH]c(=O)c2cc(-c3n[nH]cc3CN3CCN(c4ccc(C(F)(F)F)cn4)CC3)ccc2o1,< 100 nM,< 500 nM

SMILES,IC50 (Kinase),IC50 [1]
O=C1NCc2cc(-c3n[nH]cc3CN3CCN(c4ccc(C(F)(F)F)cn4)[C@@H](C(F)(F)F)C3)ccc2O1,< 100 nM,< 500 nM
O=C1NCc2cc(-c3n[nH]cc3CN3CCN(c4ccc(C(F)(F)F)cn4)C[C@H]3CF)ccc2O1,< 100 nM,< 500 nM
Cc1cccc(N2CCN(Cc3c[nH]nc3-c3ccc4oc(=O)[nH]c(=O)c4c3)CC2)c1C,< 100 nM,< 500 nM
C[C@@H]1CN(Cc2c[nH]nc2-c2ccc3oc(=O)[nH]c(=O)c3c2)CCN1c1ccc(C(F)(F)F)cn1,< 100 nM,< 500 nM
O=C1Cc2ccc(-c3n[nH]cc3CN3CCCN(c4ccc(C(F)(F)F)cn4)CC3)cc2CN1,< 100 nM,< 500 nM
O=C1NCc2cc(-c3n[nH]cc3CN3CCN(c4ccc(C(F)(F)F)cn4)C[C@H]3C(=O)O)ccc2O1,< 100 nM,< 500 nM
C[C@@H]1CN(Cc2c[nH]nc2-c2ccc3c(c2)CNC(=O)O3)CCN1c1nccc(C(F)(F)F)n1,< 100 nM,< 500 nM
C[C@@H]1CN(Cc2c[nH]nc2-c2ccc3c(c2)CNC(=O)C3)CCN1c1ccc(C(F)(F)F)cn1,< 100 nM,< 500 nM
O=c1[nH]c(=O)c2cc(-c3n[nH]cc3CN3C4CCC3CN(c3ccc(C(F)(F)F)cn3)C4)ccc2o1,< 100 nM,< 500 nM
O=C1NCc2cc(-c3n[nH]cc3CN3CCN(c4ccc(C(F)(F)F)cn4)CC3C(F)(F)F)ccc2O1 (stereo not drawn),< 100 nM,
C[C@H]1CN(Cc2c[nH]nc2-c2ccc3oc(=O)[nH]c(=O)c3c2)CCN1c1ccc(C(F)(F)F)cn1,< 100 nM,< 500 nM
C[C@@H]1CN(Cc2c[nH]nc2-c2ccc3c(c2)CNC(=O)O3)CCN1c1ccc(C(F)(F)F)cn1,< 100 nM,< 500 nM
C[C@@H]1CN(Cc2c[nH]nc2-c2ccc3c(c2)CNC(=O)O3)CCN1c1ccc(Cl)cc1,< 100 nM,< 500 nM
O=C1NCc2cc(-c3n[nH]cc3CN3CCN(c4ccc(C(F)(F)F)cn4)C[C@H]3CO)ccc2O1,< 100 nM,< 500 nM
O=C1NCc2cc(-c3n[nH]cc3CN3C4CCC3CN(c3ccc(C(F)(F)F)cn3)C4)ccc2O1,< 100 nM,< 500 nM
O=C1NCc2cc(-c3n[nH]cc3CN3CCCN(c4ccc(C(F)(F)F)cn4)CC3)ccc2N1,< 100 nM,< 500 nM
C[C@@H]1CN(Cc2c[nH]nc2-c2ccc3[nH]c(=O)oc3c2)CCN1c1ccc(C(F)(F)F)cn1,< 100 nM,< 500 nM
C[C@@H]1CN(Cc2c[nH]nc2-c2ccc3c(c2)C(C)(C)NC(=O)O3)CCN1c1ccc(C(F)(F)F)cn1,< 100 nM,< 500 nM
O=C1NCc2cc(-c3n[nH]cc3CN3CCN(c4ccc(C(F)(F)F)cn4)C4(CC4)C3)ccc2O1,< 100 nM,< 500 nM
O=C1NCc2cc(-c3n[nH]cc3CN3CCN(c4ccc(C(F)(F)F)cn4)[C@H](C(F)(F)F)C3)ccc2O1,< 100 nM,< 500 nM
C[C@@H]1CN(Cc2c[nH]nc2-c2ccc3c(c2)CNC(=O)O3)CCN1Cc1ccccc1F,< 100 nM,< 500 nM
